Assay results from patent US20090275557A1, “Novel Composition for Treatment of Diseases Related to Activated Lymphocytes” (Immune Control, Inc., priority 2008, published 2009).

How the values were obtained:
[1] = tested on: bovine type 2 collagen immunized female Lewis rats; assay: Collagen-induced arthritis assay, oral gavage treatment, ankle diameter; type: in vivo, rat
Description: (§1) Female Lewis rats (CR) weighing between 125-200 g were immunized with bovine type 2 collagen, 2 mg/ml in a 1:1 solution of 0.01 N acetic acid and Freund's incomplete adjuvant (“FIA”). A 0.1 ml portion of the collagen solution was injected id (intradermally) at three sites on the rat. Rats were immunized with the collagen solution on days 1 and 6 of the study. […] On day 9 (study day “0”), baseline ankle diameters were measured. On days 10-15 (study days 1-6), the rats were then treated, via oral gavage, with either 1, 5, or 25 mg/kg of one of ICI-1259 or ICI-1260, prepared as described below. Ankle diameter measurements were measured on each of days 10-16.
Separate solutions of ICI-1259 and ICI-1260 were prepared in Dulbecco's PBS (pH 7) (“vehicle”) at 1 mg/ml. Control animals, who had not been immunized, were given vehicle without any compound. In a further control, immunized rats were given vehicle without ICI-1259 or ICI-1260. In still another control, immunized rats were treated with Enbrel™ at 10 mg/kg.

[2] = tested on: bovine type 2 collagen immunized rats; assay: Collagen-induced arthritis assay, IP injection protocol, ankle diameter; type: in vivo, rat
Description: as §1
Compounds ICI-1259, ICI-1260, ICI-1505, and ICI-1506 were administered via IP injection to treat collagent-induced arthritis in a variation of the experiments described above. Under the protocol of the IP injection experiments, animal were immunized with Bovine Type 2 collagen as previously described. […] On day 9 (study day “0”), baseline ankle diameters were measured. On days 10-12 (study days 1-3), the rats were then treated once per day, via IP injection, with one of ICI-1259, ICI-1260, ICI-1505, or ICI-1506 at 10 mg/kg. Ankle diameter in the immunized rodents was measured on each of days 10-13 as well as on day 14. […] See FIG. 18 (ICI-1259, ICI-1260, and ICI-1505) and FIG. 19 (ICI-1506).
In a separate study, using the IP injection protocol described above, ICI-1259 and 1260 were each dosed at 2 mg/kg and 0.4 mg/kg.

5-HT2A = assay: 5-HT receptor binding, displacement of tritiated ligands; conditions: at 10 μM
Description: (§2) 5-HT receptor binding was measured using membrane preparations of brain regions known to be enriched with given 5-HT receptor subtype(s). The assay subsequently measured the displacement of tritiated ligands known to bind to a given 5-HT subtype.
(§3) A receptor binding assay was performed for ICI-1259 and ICI-1260 showing that at 10 μM, these compounds bind receptors 5-HT1A(h), 5-HT1B, 5-HT1D(h), 5-HT2A, 5-HT2A(h), 5-HT2B, 5-HT2C, 5-HT3,5-HT3(h), 5-HT4, 5-HT5A(h), 5-HT6, and 5-HT7.

5-HT7 = assay: as above; conditions: at 10 μM
Description: as §2, §3

5-HT3(h) = target: T1, 5-HT3(h) (Homo sapiens, UniProt P46098); assay: as above; conditions: at 10 μM
T1 construct: from tissue
T1 sequence (P46098 24-478): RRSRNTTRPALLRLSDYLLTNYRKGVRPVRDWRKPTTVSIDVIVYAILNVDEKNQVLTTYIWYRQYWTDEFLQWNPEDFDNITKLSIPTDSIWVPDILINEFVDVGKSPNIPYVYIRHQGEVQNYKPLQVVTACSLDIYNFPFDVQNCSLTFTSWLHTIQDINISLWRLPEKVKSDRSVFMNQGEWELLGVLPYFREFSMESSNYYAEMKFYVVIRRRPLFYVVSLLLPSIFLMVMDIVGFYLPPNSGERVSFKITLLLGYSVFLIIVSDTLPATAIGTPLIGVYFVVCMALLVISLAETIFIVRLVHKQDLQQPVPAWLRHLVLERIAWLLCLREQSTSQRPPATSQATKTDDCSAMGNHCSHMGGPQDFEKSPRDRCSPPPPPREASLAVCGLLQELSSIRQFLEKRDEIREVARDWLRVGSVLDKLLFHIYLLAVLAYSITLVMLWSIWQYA
Description: as §2, §3

5-HT4 = assay: as above; conditions: at 10 μM
Description: as §2, §3

5-HT2A(h) = target: T2, 5-HT2A(h) (Homo sapiens, UniProt P28223); assay: as above; conditions: at 10 μM
T2 construct: from tissue
Description: as §2, §3

5-HT6 = assay: as above; conditions: at 10 μM
Description: as §2, §3

5-HT1A(h) = target: T3, 5-HT1A(h) (Homo sapiens, UniProt P08908); assay: as above; conditions: at 10 μM
T3 construct: from tissue
T3 sequence (P08908 1-422): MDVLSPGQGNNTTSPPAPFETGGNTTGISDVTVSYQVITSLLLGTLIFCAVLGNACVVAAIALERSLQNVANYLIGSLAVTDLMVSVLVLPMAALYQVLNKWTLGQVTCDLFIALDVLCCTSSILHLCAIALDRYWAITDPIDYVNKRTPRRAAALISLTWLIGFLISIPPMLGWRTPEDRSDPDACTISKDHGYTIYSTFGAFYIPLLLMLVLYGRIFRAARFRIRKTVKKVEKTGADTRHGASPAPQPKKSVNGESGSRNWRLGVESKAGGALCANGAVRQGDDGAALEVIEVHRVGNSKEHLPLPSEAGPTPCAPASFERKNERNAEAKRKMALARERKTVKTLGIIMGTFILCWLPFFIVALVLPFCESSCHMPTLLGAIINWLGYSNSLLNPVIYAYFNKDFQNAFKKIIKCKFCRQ
Description: as §2, §3

5-HT1B = assay: as above; conditions: at 10 μM
Description: as §2, §3

5-HT2B = target: T4, 5-HT2B (Homo sapiens, UniProt P41595); assay: as above; conditions: at 10 μM
T4 construct: from tissue
Description: as §2, §3

5-HT1D(h) = target: T5, 5-HT1D(h) (Homo sapiens, UniProt P28221); assay: as above; conditions: at 10 μM
T5 construct: from tissue
Description: as §2, §3

5-HT2C = assay: as above; conditions: at 10 μM
Description: as §2, §3

5-HT5A(h) = target: T6, 5-HT5A(h) (Homo sapiens, UniProt P47898); assay: as above; conditions: at 10 μM
T6 construct: from tissue
Description: as §2, §3

5-HT3 = assay: as above; conditions: at 10 μM
Description: as §2, §3

[3] = IP injection 2 mg/kg, study days 3 and 4
[4] = IP injection 10 mg/kg once per day, study days 1-3, observed on study days 2-4

T2 sequence (P28223 whole entry): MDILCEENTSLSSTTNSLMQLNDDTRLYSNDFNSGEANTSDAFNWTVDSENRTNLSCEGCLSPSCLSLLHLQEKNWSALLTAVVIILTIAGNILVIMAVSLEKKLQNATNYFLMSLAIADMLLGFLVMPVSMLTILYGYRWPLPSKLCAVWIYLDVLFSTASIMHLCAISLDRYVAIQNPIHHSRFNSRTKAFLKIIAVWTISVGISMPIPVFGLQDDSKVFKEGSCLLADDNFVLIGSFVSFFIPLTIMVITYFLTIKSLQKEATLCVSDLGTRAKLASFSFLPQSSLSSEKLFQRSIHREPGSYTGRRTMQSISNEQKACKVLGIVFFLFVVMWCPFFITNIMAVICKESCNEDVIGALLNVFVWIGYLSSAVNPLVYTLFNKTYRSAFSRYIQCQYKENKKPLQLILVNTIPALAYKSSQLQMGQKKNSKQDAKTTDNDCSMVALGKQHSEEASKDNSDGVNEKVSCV
T6 sequence (P47898 whole entry): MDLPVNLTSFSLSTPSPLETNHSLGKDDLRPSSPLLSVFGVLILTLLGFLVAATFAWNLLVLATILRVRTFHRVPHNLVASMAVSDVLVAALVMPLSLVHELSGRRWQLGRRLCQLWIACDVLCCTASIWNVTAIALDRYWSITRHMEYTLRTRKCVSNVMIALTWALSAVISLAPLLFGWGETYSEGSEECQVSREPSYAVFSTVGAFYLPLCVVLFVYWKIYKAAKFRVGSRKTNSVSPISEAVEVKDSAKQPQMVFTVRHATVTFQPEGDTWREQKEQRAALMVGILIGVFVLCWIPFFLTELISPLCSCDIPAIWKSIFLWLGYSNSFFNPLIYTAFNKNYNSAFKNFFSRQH
T5 sequence (P28221 whole entry): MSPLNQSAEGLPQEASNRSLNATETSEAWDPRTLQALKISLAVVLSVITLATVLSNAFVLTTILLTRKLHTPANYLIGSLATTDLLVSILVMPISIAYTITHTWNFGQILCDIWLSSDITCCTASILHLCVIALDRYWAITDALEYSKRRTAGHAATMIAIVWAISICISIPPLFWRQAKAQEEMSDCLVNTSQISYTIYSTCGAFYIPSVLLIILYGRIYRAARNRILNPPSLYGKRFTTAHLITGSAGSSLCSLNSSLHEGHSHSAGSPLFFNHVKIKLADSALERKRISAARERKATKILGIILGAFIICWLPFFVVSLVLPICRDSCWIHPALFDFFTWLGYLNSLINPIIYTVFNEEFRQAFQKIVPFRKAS
T4 sequence (P41595 whole entry, species assumed): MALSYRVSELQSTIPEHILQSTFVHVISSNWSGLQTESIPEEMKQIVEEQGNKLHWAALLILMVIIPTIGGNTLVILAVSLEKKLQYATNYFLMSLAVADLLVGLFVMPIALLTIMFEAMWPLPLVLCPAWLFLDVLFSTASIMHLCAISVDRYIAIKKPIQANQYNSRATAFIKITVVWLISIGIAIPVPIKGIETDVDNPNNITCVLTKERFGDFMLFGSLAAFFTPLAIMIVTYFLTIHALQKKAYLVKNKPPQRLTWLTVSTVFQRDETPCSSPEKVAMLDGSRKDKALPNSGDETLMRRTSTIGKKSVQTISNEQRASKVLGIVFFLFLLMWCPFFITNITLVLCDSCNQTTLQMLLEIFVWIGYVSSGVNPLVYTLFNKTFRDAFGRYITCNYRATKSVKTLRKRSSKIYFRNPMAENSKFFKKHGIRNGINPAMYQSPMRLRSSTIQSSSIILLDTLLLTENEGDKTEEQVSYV

receptor binding (5-HT2A) | receptor binding (5-HT7) | receptor binding (5-HT3(h)) | receptor binding (5-HT4) | receptor binding (5-HT2A(h)) | receptor binding (5-HT6) | receptor binding (5-HT1A(h)) | receptor binding (5-HT1B) | receptor binding (5-HT2B) | receptor binding (5-HT1D(h)) | receptor binding (5-HT2C) | receptor binding (5-HT5A(h)) | receptor binding (5-HT3) | Structure (SMILES) | reduction in ankle swelling ([1]; oral 25 mg/kg, study days 5-7) | reduction in ankle swelling (ankle diameter) ([2]; IP injection 0.4 mg/kg) | reduction in ankle swelling (ankle diameter) [2, 3] | reduction in ankle swelling (ankle diameter) [2, 4] | reduction in ankle swelling ([1]; oral 5 mg/kg, larger standard errors at each dose) | reduction in ankle swelling ([1]; oral 25 mg/kg, larger standard errors at each dose)
bind | bind | bind | bind | bind | bind | bind | bind | bind | bind | bind | bind | bind | CNCC(=O)NCCCN1CCC(CCCN2c3ccccc3Sc3ccc(C(F)(F)F)cc32)CC1 [ICI-1259, 2-(methylamino)-N-(3-(4-(3-(2-(trifluoromethyl)-10H-phenothiazin-10-yl)propyl)piperidin-1-yl)propyl)acetamide] | statistically significant reduction in ankle swelling | Statistically significant results were only observed for ICI-1260 at 2 mg/kg | Statistically significant results were only observed for ICI-1260 at 2 mg/kg | statistically significant results were observed |  | 
bind | bind | bind | bind | bind | bind | bind | bind | bind | bind | bind | bind | bind | NCC(=O)NCCCN1CCC(CCCN2c3ccccc3Sc3ccc(C(F)(F)F)cc32)CC1 [ICI-1260, 2-amino-N-(3-(4-(3-(2-(trifluoromethyl)-10H-phenothiazin-10-yl)propyl)piperidin-1-yl)propyl)acetamide] |  | Statistically significant results were only observed for ICI-1260 at 2 mg/kg | Statistically significant results | statistically significant results were observed | showed a reduction in ankle swelling | showed a reduction in ankle swelling
